By IC50 is commonly meant the midpoint of a concentration-inhibition curve.

The target of this assay is T1, 15-hydroxyprostaglandin dehydrogenase [NAD(+)] (Homo sapiens, UniProt P15428).
T1 sequence (P15428 whole entry): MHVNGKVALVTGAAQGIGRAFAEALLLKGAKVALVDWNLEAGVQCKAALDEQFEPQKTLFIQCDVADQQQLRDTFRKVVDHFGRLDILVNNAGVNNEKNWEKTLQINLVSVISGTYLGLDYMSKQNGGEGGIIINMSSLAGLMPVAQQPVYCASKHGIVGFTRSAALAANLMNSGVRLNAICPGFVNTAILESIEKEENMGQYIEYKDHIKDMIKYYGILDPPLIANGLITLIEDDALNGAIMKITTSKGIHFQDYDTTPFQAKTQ
The experiment in a line: Inhibition of human 15-PGDH expressed in Escherichia coli using PGE2 as substrate and NAD+ as coenzyme assessed as formation of NADH by spectrophotometric analysis.

On to `O=C1N=C(O)SC1=Cc1ccc(OCCC2CCCCC2)cc1`, for which the IC50 is 51 nM.

(Values after BindingDB's records for doi:10.1021/jm200390u (Chosun University, 2011).)
